27 compounds from patent publication US10072001B2, “Tank-binding kinase inhibitor compounds” (Gilead Sciences, Inc., priority 2014, dated 2018) can be followed below.

In general, IC50 refers to the concentration that gives 50% inhibition.

The target in one test is TBK1 (Homo sapiens (Human), UniProt Q9UHD2). Kind of test: TR-FRET kinase assay, TBK1. The conditions noted are these: read-out: TBK1-IC50; full length recombinant TBK1 2.5 nM, 2x Km ATP, 1 μM peptide, 240 min at 25° C.; geometric mean of minimum four determinations.
In a further test the target is IKKε (Homo sapiens (Human), UniProt Q14164). Kind of test: TR-FRET kinase assay, IKKε. The test is classed as biochemical. The conditions noted are these: full length recombinant IKKε 0.3 nM, 2x Km ATP, 1 μM peptide, 240 min at 25° C.; geometric mean of minimum four determinations. An excerpt: Biological Assay for TBK1 and IKKs:
Background: Time-resolved FRET reads energy transfer from a long-lived donor to a nearby acceptor.

Bounds are passed on as bounds.

Sequence of IKKε (Q14164 whole entry): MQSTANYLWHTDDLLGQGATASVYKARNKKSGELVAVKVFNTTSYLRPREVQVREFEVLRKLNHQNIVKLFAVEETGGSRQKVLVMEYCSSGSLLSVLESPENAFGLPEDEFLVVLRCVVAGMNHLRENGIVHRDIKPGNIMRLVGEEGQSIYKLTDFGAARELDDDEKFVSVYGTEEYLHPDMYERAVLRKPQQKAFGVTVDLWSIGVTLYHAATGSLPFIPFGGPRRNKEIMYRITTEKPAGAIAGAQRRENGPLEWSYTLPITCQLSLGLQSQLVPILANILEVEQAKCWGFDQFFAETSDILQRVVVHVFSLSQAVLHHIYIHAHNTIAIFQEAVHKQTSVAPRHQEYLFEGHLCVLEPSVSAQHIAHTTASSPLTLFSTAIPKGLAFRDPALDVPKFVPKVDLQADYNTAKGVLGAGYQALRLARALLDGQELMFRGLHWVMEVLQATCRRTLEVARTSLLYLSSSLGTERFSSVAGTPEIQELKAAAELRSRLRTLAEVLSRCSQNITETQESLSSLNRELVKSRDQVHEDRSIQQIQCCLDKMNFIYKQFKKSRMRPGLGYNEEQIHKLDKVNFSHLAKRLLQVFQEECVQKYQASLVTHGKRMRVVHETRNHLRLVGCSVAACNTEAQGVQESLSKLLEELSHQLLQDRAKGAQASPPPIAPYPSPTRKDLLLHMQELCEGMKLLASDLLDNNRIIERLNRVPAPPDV
Sequence of TBK1 (Q9UHD2 whole entry): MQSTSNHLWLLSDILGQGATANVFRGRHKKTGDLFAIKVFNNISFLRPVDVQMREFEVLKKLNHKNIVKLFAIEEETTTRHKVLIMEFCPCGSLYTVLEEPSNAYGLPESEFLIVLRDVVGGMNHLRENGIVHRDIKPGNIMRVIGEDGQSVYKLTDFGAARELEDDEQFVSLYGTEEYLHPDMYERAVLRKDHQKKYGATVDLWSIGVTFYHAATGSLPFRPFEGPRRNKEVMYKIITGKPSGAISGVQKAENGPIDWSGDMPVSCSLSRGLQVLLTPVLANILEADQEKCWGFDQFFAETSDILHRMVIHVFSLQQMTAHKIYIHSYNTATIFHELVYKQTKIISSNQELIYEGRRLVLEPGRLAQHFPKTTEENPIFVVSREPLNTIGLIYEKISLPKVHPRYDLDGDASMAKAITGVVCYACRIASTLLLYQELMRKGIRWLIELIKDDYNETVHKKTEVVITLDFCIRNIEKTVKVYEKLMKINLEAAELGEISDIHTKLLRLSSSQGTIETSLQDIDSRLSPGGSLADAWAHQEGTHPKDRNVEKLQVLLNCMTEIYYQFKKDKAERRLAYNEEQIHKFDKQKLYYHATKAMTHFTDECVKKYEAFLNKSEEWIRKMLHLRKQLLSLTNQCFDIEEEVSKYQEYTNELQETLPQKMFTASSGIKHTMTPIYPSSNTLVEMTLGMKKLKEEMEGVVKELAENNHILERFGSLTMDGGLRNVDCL

Consider `COc1cc(-c2cc3c(-c4ccc(OC5CCNCC5)c(C#N)c4)ncnc3[nH]2)ccc1N1CCOCC1` [Example 122, 5-(6-(3-methoxy-4-morpholinophenyl)-7H-pyrrolo[2,3-d]pyrimidin-4-yl)-2-(piperidin-4-yloxy)benzonitrile], for which the figures for the IC50 at TBK1 and on IKKε were 21.2 nM and 115 nM, respectively.
For `N#Cc1cc(-c2ccnc3[nH]c(-c4ccc(N5CCOCC5)cc4)cc23)ccc1O[C@@H]1CCN(CC(F)F)C1` [Example 31, (R)-2-((1-(2,2-difluoroethyl)pyrrolidin-3-yl)oxy)-5-(2-(4-morpholinophenyl)-1H-pyrrolo[2,3-b]pyridin-4-yl)benzonitrile], in that order: 19.1 nM and 59.2 nM.
For `CC(C)(O)c1ccc(-c2cc3c(-c4cc(C#N)c(OC5CCOCC5)cn4)ccnc3[nH]2)cc1` [Example 170, 2-(2-(4-(2-Hydroxypropan-2-yl)phenyl)-1H-pyrrolo[2,3-b]pyridin-4-yl)-5-((tetrahydro-2H-pyran-4-yl)oxy)isonicotinonitrile], in that order: 3.84 nM and 8.18 nM.
In the same order, the values of `N#Cc1cc(-c2ncnc3[nH]c(-c4cccc(N5CCOCC5)c4)nc23)ccc1OC1CCOCC1` [Example 211, 5-(8-(3-morpholinophenyl)-9H-purin-6-yl)-2-((tetrahydro-2H-pyran-4-yl)oxy)benzonitrile] are 9.57 nM and 25.3 nM.
With `N#Cc1cc(-c2ccnc3[nH]c(C(=O)NC4CC4)cc23)ccc1OC1CCOCC1` [Example 59, 4-(3-cyano-4-((tetrahydro-2H-pyran-4-yl)oxy)phenyl)-N-cyclopropyl-1H-pyrrolo[2,3-b]pyridine-2-carboxamide], the IC50 at TBK1 is 79.4 nM; at IKKε, 55.4 nM.
In the same order, the values of `N#Cc1cc(-c2ccnc3[nH]c(-c4ccc(N5CCOCC5)cc4)nc23)ccc1OCC1CC1` [Example 301, 2-(cyclopropylmethoxy)-5-(2-(4-morpholinophenyl)-3H-imidazo[4,5-b]pyridin-7-yl)benzonitrile] are 43.5 nM and more than 1000 nM.
For `N#Cc1cc(-c2ccnc3[nH]c(-c4ccc(N5CCOCC5)cc4)cc23)ccc1OC1CN(C(=O)CO)C1` [Example 154, 2-((1-(2-hydroxyacetyl)azetidin-3-yl)oxy)-5-(2-(4-morpholinophenyl)-1H-pyrrolo[2,3-b]pyridin-4-yl)benzonitrile], in that order: 32.4 nM and 146 nM.
For `COc1ccc(-c2cc3c(-c4ccc(OC5CCN(C(=O)CO)CC5)c(C#N)c4)ncnc3[nH]2)cn1` [Example 130, 2-((1-(2-hydroxyacetyl)piperidin-4-yl)oxy)-5-(6-(6-methoxypyridin-3-yl)-7H-pyrrolo[2,3-d]pyrimidin-4-yl)benzonitrile], in that order: 5.43 nM and 10.6 nM.
Take `CC(=O)Nc1ccc(-c2cc3c(-c4ccc(OC5CCOCC5)c(C#N)c4)ccnc3[nH]2)cn1` [Example 236, N-(5-(4-(3-cyano-4-((tetrahydro-2H-pyran-4-yl)oxy)phenyl)-1H-pyrrolo[2,3-b]pyridin-2-yl)pyridin-2-yl)acetamide]: the IC50 came out at 15.8 nM on TBK1 and 7.91 nM at IKKε.
In the same order, the values of `N#Cc1cc(-c2ccnc3[nH]c(-c4ccc(N5CCOCC5)cc4)cc23)ccc1NC(=O)C1CC1` [Example 32, N-(2-cyano-4-(2-(4-morpholinophenyl)-1H-pyrrolo[2,3-b]pyridin-4-yl)phenyl)cyclopropanecarboxamide] are 9.34 nM and more than 1000 nM.
For `CN1CCN(c2ccc(-c3cc4c(-c5ccc(OC6CCOCC6)c(C#N)c5)ncnc4[nH]3)cc2)CC1` [Example 219, 5-(6-(4-(4-methylpiperazin-1-yl)phenyl)-7H-pyrrolo[2,3-d]pyrimidin-4-yl)-2-((tetrahydro-2H-pyran-4-yl)oxy)benzonitrile], in that order: 2.5 nM and 3.37 nM.
Regarding `N#Cc1cc(-c2ncnc3[nH]c(-c4ccc(N5CCOCC5)cc4)nc23)ccc1OC1CCN(C(=O)CO)CC1` [Example 205, 2-((1-(2-hydroxyacetyl)piperidin-4-yl)oxy)-5-(8-(4-morpholinophenyl)-9H-purin-6-yl)benzonitrile], the IC50 at TBK1 came to 2.07 nM; at IKKε it was 4.71 nM.
For `N#Cc1cc(-c2ncnc3[nH]c(-c4ccc5c(c4)NCCO5)cc23)ccc1OC1CCOCC1` [Example 191, 5-(6-(3,4-dihydro-2H-benzo[b][1,4]oxazin-6-yl)-7H-pyrrolo[2,3-d]pyrimidin-4-yl)-2-((tetrahydro-2H-pyran-4-yl)oxy)benzonitrile], in that order: 5.09 nM and 12.7 nM.
In the same order, the values of `N#CCC(=O)N1CC[C@@H](Oc2ccc(-c3ccnc4[nH]c(-c5ccc(N6CCOCC6)cc5)nc34)cc2C#N)C1` [Example 303, (R)-2-((1-(2-cyanoacetyl)pyrrolidin-3-yl)oxy)-5-(2-(4-morpholinophenyl)-3H-imidazo[4,5-b]pyridin-7-yl)benzonitrile] are 4.59 nM and 7.51 nM.
With `N#Cc1cc(-c2ccnc3[nH]c(C4CC4)cc23)ccc1OC1CCOCC1` [Example 50, 5-(2-cyclopropyl-1H-pyrrolo[2,3-b]pyridin-4-yl)-2-((tetrahydro-2H-pyran-4-yl)oxy)benzonitrile], the IC50 on TBK1 was determined as 651 nM; on IKKε, 449 nM.
For `N#Cc1cc(-c2ccnc3[nH]c(C(=O)N4CCOCC4)cc23)ccc1OC1CCOCC1` [Example 116, 5-(2-(morpholine-4-carbonyl)-1H-pyrrolo[2,3-b]pyridin-4-yl)-2-((tetrahydro-2H-pyran-4-yl)oxy)benzonitrile], in that order: 1000 nM and 667 nM.
For `CC(C)(C)OC(=O)N1CC=C(c2cc3c(-c4ccc(OC5CCOCC5)c(C#N)c4)ccnc3[nH]2)C1` [Example 36, tert-butyl 3-(4-(3-cyano-4-((tetrahydro-2H-pyran-4-yl)oxy)phenyl)-1H-pyrrolo[2,3-b]pyridin-2-yl)-2,5-dihydro-1H-pyrrole-1-carboxylate], in that order: 38.4 nM and 79 nM.
In the same order, the values of `COc1cc(-c2cc3c(-c4ccc(OC5CCS(=O)(=O)CC5)c(C#N)c4)ncnc3[nH]2)ccc1N1CCN(C2COC2)CC1` [Example 139, 2-((1,1-dioxidotetrahydro-2H-thiopyran-4-yl)oxy)-5-(6-(3-methoxy-4-(4-(oxetan-3-yl)piperazin-1-yl)phenyl)-7H-pyrrolo[2,3-d]pyrimidin-4-yl)benzonitrile] are 3.68 nM and 25 nM.
Turning to `N#Cc1cc(-c2ncnc3[nH]c(-c4ccc(N5CCN(C6COC6)CC5)cc4)nc23)ccc1OC1CCOCC1` [Example 232, 5-(8-(4-(4-(oxetan-3-yl)piperazin-1-yl)phenyl)-9H-purin-6-yl)-2-((tetrahydro-2H-pyran-4-yl)oxy)benzonitrile], the IC50 on TBK1 was 4.49 nM; on IKKε, 15.5 nM.
In the same order, the values of `N#Cc1cc(-c2ncnc3[nH]c(-c4ccc(N5CCOCC5)cc4)nc23)ccc1OC1CCOCC1` [Example 201, 5-(8-(4-morpholinophenyl)-9H-purin-6-yl)-2-((tetrahydro-2H-pyran-4-yl)oxy)benzonitrile] are 3 nM and 19.7 nM.
Take `N#Cc1cc(-c2ccnc3[nH]c(-c4ccc(N5CCOCC5)cc4)cc23)cnc1OC1CCOCC1` [Example 29, 5-(2-(4-morpholinophenyl)-1H-pyrrolo[2,3-b]pyridin-4-yl)-2-((tetrahydro-2H-pyran-4-yl)oxy)nicotinonitrile]: the IC50 at TBK1 came to 14.8 nM; on IKKε it was 242 nM.
Take `N#Cc1cc(-c2ncnc3[nH]c(-c4ccc(N5CCOCC5)cc4)cc23)ccc1N1CC(O)C1` [Example 199, 2-(3-hydroxyazetidin-1-yl)-5-(6-(4-morpholinophenyl)-7H-pyrrolo[2,3-d]pyrimidin-4-yl)benzonitrile]: the IC50 on TBK1 came out at 2.15 nM; at IKKε, 1000 nM.
In the same order, the values of `COc1ccc(-c2cc3c(-c4ccc(OC5CCN(C(=O)CO)CC5)c(C#N)c4)ncnc3[nH]2)c(C)c1` [Example 131, 2-((1-(2-hydroxyacetyl)piperidin-4-yl)oxy)-5-(6-(4-methoxy-2-methylphenyl)-7H-pyrrolo[2,3-d]pyrimidin-4-yl)benzonitrile] are 5.68 nM and 12.4 nM.
For `CS(=O)(=O)N1CCN(c2ccc(-c3cc4c(-c5ccc(OC6CCOCC6)c(C#N)c5)ccnc4[nH]3)cc2)CC1` [Example 55, 5-(2-(4-(4-(methylsulfonyl)piperazin-1-yl)phenyl)-1H-pyrrolo[2,3-b]pyridin-4-yl)-2-((tetrahydro-2H-pyran-4-yl)oxy)benzonitrile], in that order: 2.84 nM and more than 1000 nM.
In the case of `N#Cc1cc(-c2ccnc3[nH]c(-c4ccc(N5CCOCC5)c(F)c4)cc23)ccc1OC1CCOCC1` [Example 77, 5-(2-(3-fluoro-4-morpholinophenyl)-1H-pyrrolo[2,3-b]pyridin-4-yl)-2-((tetrahydro-2H-pyran-4-yl)oxy)benzonitrile], the IC50 at TBK1 turned out to be 10.9 nM; at IKKε it was 38 nM.
Consider `N#Cc1cc(-c2ccnc3[nH]c(-c4cnn(C5CCOCC5)c4)cc23)ccc1OC1CCOCC1` [Example 51, 5-(2-(1-(tetrahydro-2H-pyran-4-yl)-1H-pyrazol-4-yl)-1H-pyrrolo[2,3-b]pyridin-4-yl)-2-((tetrahydro-2H-pyran-4-yl)oxy)benzonitrile], for which the 50% inhibitory concentration (IC50) on TBK1 was 3.54 nM; on IKKε, 2.98 nM.
Take `N#Cc1cc(-c2ncnc3[nH]c(-c4ccc(OC(F)(F)F)cc4)cc23)ccc1OC1CCN(C(=O)CO)CC1` [Example 128, 2-((1-(2-hydroxyacetyl)piperidin-4-yl)oxy)-5-(6-(4-(trifluoromethoxy)phenyl)-7H-pyrrolo[2,3-d]pyrimidin-4-yl)benzonitrile]: the IC50 came out at 4.21 nM on TBK1 and 13.6 nM on IKKε.
